From patent US20060094719A1, “Tetralin histamine-3 receptor antagonists” (Pfizer Inc, priority 2004, published 2006)

Columns and labels:
[1] = biological target: T1, rat histamine H3 receptors (Rattus norvegicus, UniProt Q9QYN8); test: Rat H3 binding, 3H-N-methylhistamine displacement in frontal brain membranes; settings: radioligand 1 nM 3H-N-methylhistamine, 1-hour incubation
T1 construct: Frozen rat frontal brain or frozen human post-mortem frontal brain is homogenized; from tissue; host or cells: rat frontal brain membranes
T1 sequence (Q9QYN8 whole entry): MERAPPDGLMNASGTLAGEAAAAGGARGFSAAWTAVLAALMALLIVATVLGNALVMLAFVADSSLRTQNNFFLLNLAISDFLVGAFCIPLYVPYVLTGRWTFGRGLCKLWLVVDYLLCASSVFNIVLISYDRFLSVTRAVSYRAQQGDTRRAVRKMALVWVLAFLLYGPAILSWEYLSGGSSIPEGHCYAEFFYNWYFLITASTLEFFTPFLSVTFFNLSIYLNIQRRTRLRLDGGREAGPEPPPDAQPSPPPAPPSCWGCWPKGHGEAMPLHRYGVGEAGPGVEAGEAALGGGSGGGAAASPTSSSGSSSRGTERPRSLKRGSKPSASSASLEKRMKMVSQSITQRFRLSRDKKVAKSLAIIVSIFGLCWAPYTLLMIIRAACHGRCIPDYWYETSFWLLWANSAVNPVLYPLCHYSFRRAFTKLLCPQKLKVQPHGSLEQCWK
Procedure: The in vitro affinity of the compounds in the present invention at the rat or human histamine H3 receptors can be determined according to the following procedure. Frozen rat frontal brain or frozen human post-mortem frontal brain is homogenized in 20 volumes of cold 50 mM Tris.HCl containing 2 mM MgCl2 (pH to 7.4 at 4° C.). The homogenate is then centrifuged at 45,000 G for 10 minutes. The supernatant is decanted and the membrane pellet re-suspended by Polytron in cold 50 mM Tris.HCl containing 2 mM MgCl2 (pH to 7.4 at 4 degrees C.) and centrifuged again. The final pellet is re-suspended in 50 mM Tris HCl containing 2 mM MgCl2 (pH to 7.4 at 25 degrees C.) at a concentration of 12 mg/mL. Dilutions of compounds are made in 10% DMSO/50 mM Tris buffer (pH 7.4) (at 10×final concentration, so that the final DMSO concentration is 1%). Incubations are initiated by the addition of membranes (200 microliters) to 96-well V-bottom polypropylene plates containing 25 microliters of drug dilutions and 25 microliters of radioligand (1 nM final concentration ^3H-N-methylhistamine). After a 1-hour incubation, assay samples are rapidly filtered through Whatman GF/B filters and rinsed with ice-cold 50 mM Tris buffer (pH 7.4) using a Skatron cell harvester. Radioactivity is quantified using a BetaPlate scintillation counter.

Structure (SMILES)	melting point	Ki [1] [nM]
Cl.c1cc2c(cc1OCCCN1CCOCC1)CCC(CN1CCCC1)C2 (racemic) [4]	259.9 to 261.4 °C	
NC(=O)C1CCCN(CCCOc2ccc3c(c2)CCC(CN2CCCC2)C3)C1 (racemic) [Example 9, (±)-1-[3-(6-Pyrrolidin-1-ylmethyl-5,6,7,8-tetrahydro-naphthalen-2-yloxy)-propyl]-piperidine-3-carboxylic acid amide]	102 to 103.2 °C	
Fc1ccc(C2CCCN2CCCOc2ccc3c(c2)CCC(CN2CCCC2)C3)cc1 (single isomer, unassigned; (+)) [71 (+), (+)-2-(4-Fluorophenyl)-1-[3-(6-pyrrolidin-1-ylmethyl-5,6,7-8-tetrahydro-naphthalen-2-yloxy)-propyl]-pyrrolidine]		9.6
CN(C)CCCOc1ccc2c(c1)CCC(CN1CCCC1)C2.Cl (stereo not drawn) [13]	230.6 to 232.8 °C	
CN(C)CCOc1ccc2c(c1)CCC(CN1CCCC1)C2.Cl (racemic)	131.6 to 132.8 °C	
CC1(C)CCCN(CCCOc2ccc3c(c2)CCC(CN2CCCC2)C3)C1.Cl (single isomer, unassigned; (-)) [15 (−), (−)-3,3-Dimethyl-1-[3-(6-pyrrolidin-1-ylmethyl-5,6,7,8-tetrahydro-naphthalen-2-yloxy)-propyl]-piperidine hydrochloride]	202 to 204 °C	5
c1cc2c(cc1OCCCN1CC3CCCC1C3)CCC(CN1CCCC1)C2 (single isomer, unassigned; (-)) [65 (−), (−)-6-[3-(6-Pyrrolidin-1-ylmethyl-5,6,7,8-tetrahydro-naphthalen-2-yloxy)-propyl]-6-azabicyclo-[3.2.1]octane]		2.11
Fc1ccc(CNCCCOc2ccc3c(c2)CCC(CN2CCCC2)C3)cc1F (single isomer, unassigned; (-)) [77 (−), (−)-(3,4-Difluorobenzyl)-[3-(6-pyrrolidin-1-ylmethyl-5,6,7,8-tetrahydro-naphthalen-2-yloxy)-propyl]-amine]		1.95
CC1CCCCN1CCCOc1ccc2c(c1)CCC(CN1CCCC1)C2 (single isomer, unassigned; (-)) [41 (−), (−)-2-Methyl-1-[3-(6-pyrrolidin-1-ylmethyl-5,6,7,8-tetrahydro-naphthalen-2-yloxy)-propyl]-piperidine]		5.89
CC1CC(C)CN(CCCOc2ccc3c(c2)CCC(CN2CCCC2)C3)C1 (single isomer, unassigned; (-)) [81 (−), (−)-3,5-Dimethyl-1-[3-(6-pyrrolidin-1-ylmethyl-5,6,7,8-tetrahydro-naphthalen-2-yloxy)-propyl]-piperidine]		9.14
Cl.c1cc2c(cc1OCCCN1CCOCC1)CCC(CN1CCCC1)C2 (stereo not drawn) [11]	281.8 to 282.7 °C	
c1ccc(CNCCCOc2ccc3c(c2)CCC(CN2CCCC2)C3)cc1 (single isomer, unassigned; (-)) [28 (−), (−)-Benzyl-[3-(6-pyrrolidin-1-ylmethyl-5,6,7,8-tetrahydro-naphthalen-2-yloxy)-propyl]-amine]		4.7
CC1CCCN(CCCOc2ccc3c(c2)CCC(CN2CCCC2)C3)C1 (single isomer, unassigned; (-)) [40 (−), (−)-3-Methyl-1-[3-(6-pyrrolidin-1-ylmethyl-5,6,7,8-tetrahydro-naphthalen-2-yloxy)-propyl]-piperidine]		3.54
CC(CN1CCOCC1)NCCCOc1ccc2c(c1)CCC(CN1CCCC1)C2 (single isomer, unassigned; (-)) [51 (−), (−)-(1-Methyl-2-morpholin-4-ylethyl)-[3-(6-pyrrolidin-1-ylmethyl-5,6,7,8-tetrahydro-naphthalen-2-yloxy)-propyl]-amine]		6.2
Cl.c1cc2c(cc1OCCCN1CCC3(CCCCC3)CC1)CCC(CN1CCCC1)C2 (stereo not drawn)	287.6 to 290.2 °C	
Cl.c1cc2c(cc1OCCCNC1CCC3(CCCCC3)CC1)CCC(CN1CCCC1)C2 (single isomer, unassigned; (-)) [16 (−), (−)-[3-(6-Pyrrolidin-1-ylmethyl-5,6,7,8-tetrahydro-naphthalen-2-yloxy)-propyl]-spiro[5.5]undec-3-ylamine hydrochloride]	291.5 to 292.9 °C	7.2
Clc1ccc(CNCCCOc2ccc3c(c2)CCC(CN2CCCC2)C3)cc1 (single isomer, unassigned; (-)) [24 (−), (−)-(4-Chlorobenzyl)-[3-(6-pyrrolidin-1-ylmethyl-5,6,7,8-tetrahydro-naphthalen-2-yloxy)-propyl]-amine]		0.84
Clc1ccc(CNCCCOc2ccc3c(c2)CCC(CN2CCCC2)C3)cc1Cl (single isomer, unassigned; (-)) [27 (−), (−)-(3,4-Dichlorobenzyl)-[3-(6-pyrrolidin-1-ylmethyl-5,6,7,8-tetrahydro-naphthalen-2-yloxy)-propyl]-amine]		1.58

Structure (SMILES)	melting point	Ki [1] [nM]
CC1CCCN(CCCOc2ccc3c(c2)CCC(CN2CCCC2)C3)C1 (single isomer, unassigned; (+)) [40 (+), (+)-3-Methyl-1-[3-(6-pyrrolidin-1-ylmethyl-5,6,7,8-tetrahydro-naphthalen-2-yloxy)-propyl]-piperidine]		8.4
Cl.Cl.c1cc2c(cc1OCCN1CCCCC1)CCC(CN1CCCC1)C2 (single isomer, unassigned; (-)) [92 (−), (−)-1-[2-(6-Pyrrolidin-1-ylmethyl-5,6,7,8-tetrahydro-naphthalen-2-yloxy)-ethyl]-piperidine dihydrochloride]	265.5 to 266.8 °C	11.3
Cl.c1cc2c(cc1OCCCN1CCCC1)CCC(CN1CCCC1)C2 (racemic) [6 (±), (±)-1-[3-(6-Pyrrolidin-1-ylmethyl-5,6,7,8-tetrahydro-naphthalen-2-yloxy)-propyl]-pyrrolidine hydrochloride]	149.4 to 150.5 °C	9
Cl.c1cc2c(cc1OCCCN1CCOCC1)CCC(CN1CCCC1)C2 (stereo not drawn) [14]	249.6 to 250.4 °C	
CN(CCCOc1ccc2c(c1)CCC(CN1CCCC1)C2)Cc1ccco1 (single isomer, unassigned; (-)) [55 (−), (−)-Furan-2-ylmethyl-[3-(6-pyrrolidin-1-ylmethyl-5,6,7,8-tetrahydro-naphthalen-2-yloxy)-propyl]-methylamine]		4.5
CC1CCN(CCCOc2ccc3c(c2)CCC(CN2CCCC2)C3)CC1 (single isomer, unassigned; (-)) [42 (−), (−)-4-Methyl-1-[3-(6-pyrrolidin-1-ylmethyl-5,6,7,8-tetrahydro-naphthalen-2-yloxy)-propyl]-piperidine]		4.32
CN(C)CCCOc1ccc2c(c1)CCC(CN1CCCC1)C2.Cl (racemic) [1]	187.7 to 188.7 °C	
Fc1ccc(CNCCCOc2ccc3c(c2)CCC(CN2CCCC2)C3)cc1 (single isomer, unassigned; (-)) [32 (−), (−)-(4-Fluorobenzyl)-[3-(6-pyrrolidin-1-ylmethyl-5,6,7,8-tetrahydro-naphthalen-2-yloxy)-propyl]-amine]		1.25
Clc1ccc(CNCCCOc2ccc3c(c2)CCC(CN2CCCC2)C3)c(Cl)c1 (single isomer, unassigned; (-)) [79 (−), (−)-(2,4-Dichlorobenzyl)-[3-(6-pyrrolidin-1-ylmethyl-5,6,7,8-tetrahydro-naphthalen-2-yloxy)-propyl]-amine]		1.9
Cl.c1cc2c(cc1OCCCN1CCCCC1)CCC(CN1CCCC1)C2 (single isomer, unassigned; (-)) [10 (−), (−)-1-[3-(6-Pyrrolidin-1-ylmethyl-5,6,7,8-tetrahydro-naphthalen-2-yloxy)-propyl]-piperidine hydrochloride]	286.6 to 286.8 °C	1.1
Cl.NC(=O)C1CCN(CCCOc2ccc3c(c2)CCC(CN2CCCC2)C3)CC1 (racemic)	211 to 213 °C	
Cl.c1cc2c(cc1OCCCNC1CC3CCC1C3)CCC(CN1CCCC1)C2 (stereo not drawn)	265.4 to 266.3 °C	
c1cc2c(cc1OCCCNC1CCCCC1)CCC(CN1CCCC1)C2 (single isomer, unassigned; (-)) [64 (−), (−)-[3-(6-pyrrolidin-1-ylmethyl-5,6,7,8-tetrahydro-naphthalen-2-yloxy)-propyl]-cyclohexyl-amine]		4.36
Cl.c1cc2c(cc1OCCCN1CCCCC1)CCC(CN1CCCC1)C2 (stereo not drawn) [12]	256.6 to 258.4 °C	
Cl.c1cc2c(cc1OCCCN1CCC(N3CCCCC3)CC1)CCC(CN1CCCC1)C2 (racemic) [7 (±), (±)-1′-[3-(6-Pyrrolidin-1-ylmethyl-5,6,7,8-tetrahydro-naphthalen-2-yloxy)-propyl]-[1,4′]bi-piperidinyl hydrochloride]	284.8 °C (dec.)	3
Cl.c1cc2c(cc1OCCCN1CCOCC1)CCC(CN1CCCC1)C2 (stereo not drawn) [5]	255.4 to 256.4 °C	
c1cc2c(cc1OCCCN1CCCCC1)CCC(CN1CCCC1)C2 (racemic) [3 (±), (±)-1-[3-(6-Pyrrolidin-1-ylmethyl-5,6,7,8-tetrahydro-naphthalen-2-yloxy)-propyl]-piperidine]	180 to 181.4 °C	8.4
